The values that follow are results of earlier work, collected in patent publication US9694043B2, “Composition for preventing or treating hearing loss” (UNIVERSITY-INDUSTRY COOPERATION GROUP OF KYUNG HEE …, priority 2011, dated 2017).

Molecules are shown by their SMILES.

One series has as its system soldiers. The settings on record: 600 U.S. navy soldiers, NAC for 2 weeks during weapons training.
Another series relates to animal model. The settings on record: high level of NAC.

For the compound `CC(=O)N[C@@H](CS)C(=O)O` [NAC, N-acetyl cysteine], in the series with soldiers, the Permanent hearing loss entry is recorded as “decrease in permanent hearing loss”. In addition, in the series with animal model, the “Effect on noise-induced hearing loss in animal model” value was “preventive effects on noise-induced hearing loss but limited effects on permanent hearing loss”.
